This experiment concerns the target human CNR2 receptors (CB2 receptor) (Homo sapiens (Human), UniProt P34972). The experiment can be described thus: Radioligand binding assay, human CB2 (CNR2). The following applies: membranes of HEK cells expressing human CNR2, 2.6 nM [3H]-CP-55,940 radioligand; read-out: Binding assay human CB2 Ki. As to the method:
Radioligand Binding Assay
The affinity of the compounds of the invention for cannabinoid CB1 receptors was determined using recommended amounts of membrane preparations (PerkinElmer) of human embryonic kidney (HEK) cells expressing the human CNR1 or CNR2 receptors in conjunction with 1.5 or 2.6 nM [3H]-CP-55,940 (Perkin Elmer) as radioligand, respectively. Binding was performed in binding buffer (50 mM Tris, 5 mM MgCl2, 2.5 mM EDTA, and 0.5% (wt/vol) fatty acid free BSA, pH 7.4 for CB1 receptor and 50 mM Tris, 5 mM MgCl2, 2.5 mM EGTA, and 0.1% (wt/vol) fatty acid free BSA, pH 7.4 for CB2 receptor) in a total volume of 0.2 ml for 1 h at 30° C. shaking. The reaction was terminated by rapid filtration through microfiltration plates coated with 0.5% polyethylenimine (UniFilter GFB filter plate; Packard). Bound radioactivity was analyzed for Ki using nonlinear regression analysis (Activity Base, ID Business Solution, Limited), with the Kd values for [3H]CP55,940 determined from saturation experiments. The compounds of formula (I) show an excellent affinity for the CB2 receptor.
The compounds according to formula (I) have an activity in the above assay (Ki) between 0.5 nM and 10 μM. Particular compounds of formula (I) have an activity in the above assay (Ki) between 0.5 nM and 3 μM. Other particular compounds of formula (I) have an activity in the above assay (Ki) between 0.5 nM and 100 nM.

For orientation: Ki means the dissociation constant of the complex between target and ligand, obtained from inhibition or displacement.

Molecules are shown by their SMILES.

human CNR2 receptors (CB2 receptor), sequence (P34972 whole entry): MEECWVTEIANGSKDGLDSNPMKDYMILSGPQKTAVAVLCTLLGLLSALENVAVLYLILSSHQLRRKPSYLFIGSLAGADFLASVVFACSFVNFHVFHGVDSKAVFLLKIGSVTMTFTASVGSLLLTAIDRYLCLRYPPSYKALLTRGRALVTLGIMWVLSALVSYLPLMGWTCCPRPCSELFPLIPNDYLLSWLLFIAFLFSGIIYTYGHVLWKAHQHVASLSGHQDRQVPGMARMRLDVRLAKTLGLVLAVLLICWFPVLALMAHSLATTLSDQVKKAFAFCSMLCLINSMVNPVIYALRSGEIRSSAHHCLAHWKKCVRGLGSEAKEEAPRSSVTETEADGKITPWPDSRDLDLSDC

As to `CCC(CC)(NC(=O)c1ccc(N2CCCC2)c(OCC2(CO)COC2)n1)C(=O)OCCF` [Example 34, 2-Fluoroethyl 2-ethyl-2-(6-((3-(hydroxymethyl)oxetan-3-yl)methoxy)-5-(pyrrolidin-1-yl)picolinamide)butanoate], the inhibition constant (Ki) was 607 nM.

Regarding `CCC(CC)(NC(=O)c1ccc(N2CCCC2)c(OCC2(CO)COC2)n1)C(=O)OCCCF` [Example 35, 3-Fluoropropyl 2-ethyl-2-(6-((3-(hydroxymethyl)oxetan-3-yl)methoxy)-5-(pyrrolidin-1-yl)picolinamido)butanoate], the inhibitory constant (Ki) amounted to 1390 nM.

These data come from patent publication US11655243B2, “Pyridine and pyrazine derivatives as preferential cannabinoid 2 agonists” (HOFFMANN-LA ROCHE INC., priority 2018, dated 2023).
